Reference: patent US4207326A, “Antimicrobial quaternary pyrazole derivatives” (Cilag-Chemie A.G., priority 1979, dated 1980)
Read-outs that look alike come from different tables or passages of the source.

Tests used:
C. tropicalis = assay: Antimycotic activity: Minimum Inhibitory Concentration; format: cell-based, Candida tropicalis NCPF 3111; conditions: pH 5.5, 37° C., 72 hours; for MIC: Candida tropicalis; for Minimum Inhibitory Concentrations: C. tropicalis
Method: (§1) The antimicrobial activity was determined by inoculation of the test microorganism into suitable growth media containing solutions of the compounds at concentrations of 100, 50, 10, 5, 1.0, 0.5 and 0.1 μg/ml. The reference antibiotics used were Gentamicin for the antibacterial tests and Amphotericin B for the antimycotic and antifungal tests. After incubation the antimicrobial activity was recorded as the Minimal Inhibitory Concentration (M.I.C.), i.e., the lowest concentration preventing macroscopically visible growth, for each test compound against each organism.
(§2) An initial solution of each formula (I) compound to be tested in sterile distilled water was prepared at a concentration of 1000 μg/ml. With appropriate dilutions using sterile distilled water, additional solutions were prepared at concentrations of 500, 100, 50, 10, 5 and 1 μg/ml.
The two species, C. albicans and C. tropicalis, were maintained on Sabouraud-Dextrose Agar (Oxoid CM41) and cultures for the preparation of the inoculum were incubated on this agar at 37° C. for 48 hours. 4.5 Ml volumes of citric acid-phosphate buffer pH 5.5 plus Yeast-Nitrogen Base (Difco 0392-15) were then inoculated from the agar cultures and incubated at 37° C. for 48 hours. 0.1 Ml aliquots of these cultures were then added to 100 ml volumes of sterile physiological saline to give the final inocula.
(b) For the tests on each of the C. albicans, C. tropicalis and C. neoformans strains and each of the test and reference compounds, a series of 8 tubes containing 4.5 ml volumes of citric acid-phosphate buffer pH 5.5 plus Yeast-Nitrogen Base (Difco 0392-15) were prepared. To 7 of these were added 0.5 ml volumes of the final solutions of the test compounds, giving final concentrations in the broths of 100, 50, 10, 5, 1.0, 0.5 and 0.1 μg/ml. To the eighth tube in each series was added 0.5 ml of the solvent used and diluted as for the preparation of the 1000 μg/ml solution of the compound. This tube was used as the growth control. The tubes were then inoculated with 0.1 ml aliquots of the inocula prepared as in "(b) Fungi" above. The tubes inoculated with the C. albicans and C. tropicalis were inoculated at 37° C. for 72 hours and the tubes inoculated with the C. neoformans straim were incubated at 30° C. for 72 hours. […] The tubes were then examined for evidence of growth as shown by turbidity of the medium and the lowest concentration of the test compound which prevented fungal growth was recorded as the Minimal Inhibitory Concentration. This test procedure was carried out on two separate days.

S. aureus = assay: Antibacterial activity: Minimum Inhibitory Concentration; format: cell-based, Staphylococcus aureus ATCC 6538; conditions: 24 hours; for MIC: Staphylococcus aureus
Method: as §1, §2
(§3) They were cultured and maintained on Tryptone Soy Agar (Oxoid CM 131), with the addition of 10% horse blood for the S. pyogenes.
(§4) To prepare the organisms as inocula for the test, slopes of this medium were streaked with the organisms and incubated at 37° C. for 24 hours. 4.5 Ml volumes of Brian-Heart Infusion Broth (Oxoid CM 225) were then inoculated with a platinum loop from the agar slope cultures and incubated for 24 hours at 37° C. The final inocula were then prepared by adding 0.1 ml aliquots of the Brain-Heart Infusion Broth cultures to 100 ml volumes of sterile physiological saline.
(§5) (a) For the test on each of the bacterial strains and each of the test and reference compounds, a series of 8 tubes containing 4.5 ml volumes of Brain-Heart Infusion Broth (Oxoid CM 225) were prepared. To 7 of these were added 0.5 ml volumes of the final solutions of the test compouns, giving final concentrations in the broths of 100, 50, 10, 5, 1.0, 0.5 and 0.1 μg/ml. To the eighth tube in each series was added 0.5 ml of the solvent used and diluted as for the preparation of the 1000 μg/ml solution of the compound. This tube was used as the growth control. The tubes were inoculated with 0.02 ml aliquots of the inocula prepared in accordance with "(a) Bacteria" above, and incubated at 37° C. for 24 hours. The tubes were then examined for evidence of bacterial growth as shown by turbidity of the medium and the lowest concentration of the test compound which prevented bacterial growth was recorded as the Minimal Inhibitory Concentration. This test procedure was carried out on two separate days.

M. canis = assay: Antifungal activity: Minimum Inhibitory Concentration; format: cell-based, Microsporum canis NCPF 351; conditions: M. canis, 27° C., one week; for MIC: Microsporum canis, read-out: Minimum Inhibitory Concentration
Method: as §1, §2
(§6) The A. corymbifera, A. fumigatus, S. schenkii, T. rubrum, T. mentagrophytes, M. canis and P. verrucosa strains were all maintained on Sabouraud-Dextrose Agar (Oxoid CM 41) by incubating for 14 days at 27° C. To prepare the inocula 30 ml volumes of Sabouraud-Liquid medium (Oxoid CM 147) were inoculated from the agar cultures and incubated at 27° C. until heavy uniform growth resulted. The mycelial growth was then broken up by shaking with glass beads.
(§7) 1 Ml aliquots were removed from each of the cultures for the purpose of making viable counts and the cultures were then held at 4° C. The viable counts were made by preparing serial ten-fold dilutions of the cultures in sterile physiological saline and spreading on plates of Sabouraud-Dextrose Agar (Oxoid CM 41) which were then incubated at 27° C. for 14 days. When the viable counts had confirmed that each of the inocula contained approximately 10^6 colony forming units (C.F.U.) per ml the cultures were withdrawn from the refrigerator and used as the inocula for the tests.
(§8) (c) For the tests on each of the remaining seven strains and each of the test and reference compounds, a series of 8 tubes containing 4.5 ml volumes of Sabouraud-Liquid Medium (Oxoid CM 147) were prepared. To 7 of these were added 0.5 ml volumes of the final solutions of the test compounds, giving final concentrations in the broths of 100, 50, 10, 5, 1.0, 0.5 and 0.1 μg/ml. To the eighth tube in each series was added 0.5 ml of the solvent used and diluted as for the preparation of the 500 μg/ml solution of the compound. This tube was used as a growth control. The tubes were then inoculated with 0.1 ml aliquots of the inocula prepared as in "(b) Fungi" above. The tubes were then incubated at 27° C. with continuous shaking for a period of one week. The tubes were then examined for evidence of growth as shown by the presence of mycelial growth in the medium and the lowest concentration of the test compound which prevented fungal growth was recorded as the Minimal Inhibitory Concentration. This test procedure was carried out on two separate days.

P. aeruginosa = assay: Antibacterial activity: Minimum Inhibitory Concentration; format: cell-based, Pseudomonas aeruginosa ATCC 9027; conditions: for MIC: Pseudomonas aeruginosa, read-out: Minimum Inhibitory Concentration
Method: as §1, §2, §3, §4, §5

E. coli = assay: as above; format: cell-based, Escherichia coli ATCC 8739; conditions: 24 hours; for MIC: Escherichia coli
Method: as §1, §2, §3, §4, §5

P. verrucosa = assay: Antifungal activity: Minimum Inhibitory Concentration; format: cell-based, Phialophore verrucosa NCPF 1119; conditions: P. verrucosa, 27° C., one week; for MIC: Phialophora verrucosa, read-out: Minimum Inhibitory Concentration
Method: as §1, §2, §6, §7, §8

A. corymbifera = assay: as above; format: cell-based, Absidia corymbifera NCPF 2001; conditions: for MIC: Lichtheimia corymbifera, read-out: Minimum Inhibitory Concentration
Method: as §1, §2
A. corymbifera NCPF 2001
as §6, §7, §8

[1] = A. corymbifera, Day 2, 27° C., one week
[2] = P. aeruginosa, Day 1, 37° C., 24 hours
[3] = P. aeruginosa, Day 2, 37° C., 24 hours
[4] = A. corymbifera, Day 1, 27° C., one week
[5] = pH 5.5, C. tropicalis, Day 1, read-out: Minimum Inhibitory Concentrations
[6] = pH 5.5, C. tropicalis, Day 2, read-out: Minimum Inhibitory Concentrations

CCCCCCCCCCCCCCCC[n+]1c(C)cc(C)n1C.Cc1ccc(S(=O)(=O)[O-])cc1 [Example 6-C, 1-hexadecyl-2,3,5-trimethylpyrazolium p-toluene sulfonate]
0.5 µg/mL: MIC (S. aureus; Day 1, 37° C.) | MIC (S. aureus; Day 2, 37° C.)
5 µg/mL: MIC (C. tropicalis; pH 5.5, read-out: Minimum Inhibitory Concentrations, C. tropicalis, Day 1) | Minimum Inhibitory Concentration (M. canis; Day 2) | MIC (P. aeruginosa; 24 h) | Minimum Inhibitory Concentration (P. verrucosa; Day 2)
10 µg/mL: MIC (P. aeruginosa) | MIC (E. coli; Day 1, 37° C.) | MIC (E. coli; Day 2, 37° C.) | Minimum Inhibitory Concentration (A. corymbifera; [1]) | MIC (A. corymbifera)

2,3(5)-dimethyl-1-hexadecyl-pyrazolium methosulfate [Example 9]
0.5 µg/mL: Minimum Inhibitory Concentration (S. aureus; Day 1, 37° C.) | Minimum Inhibitory Concentration (S. aureus; Day 2, 37° C.)
50 µg/mL: Minimum Inhibitory Concentration (E. coli; Day 1, 37° C.)
5 µg/mL: Minimum Inhibitory Concentrations (C. tropicalis; Day 1) | Minimum Inhibitory Concentration (M. canis; Day 1) | Minimum Inhibitory Concentration (M. canis; Day 2) | Minimum Inhibitory Concentration (P. verrucosa; Day 1)
1 µg/mL: Minimum Inhibitory Concentrations (C. tropicalis; Day 2)
10 µg/mL: Minimum Inhibitory Concentration (P. aeruginosa; [2]) | Minimum Inhibitory Concentration (P. aeruginosa; [3]) | Minimum Inhibitory Concentration (E. coli; Day 2, 37° C.) | Minimum Inhibitory Concentration (P. verrucosa; Day 2) | Minimum Inhibitory Concentration (A. corymbifera; [4]) | Minimum Inhibitory Concentration (A. corymbifera; [1])

CCCCCCCCCCCC[n+]1c(C)cc(C)n1Cc1ccc(Cl)cc1Cl.[Br-] [Example 6-B, 2-(2,4-dichlorobenzyl)-3,5-dimethyl-1-dodecyl-pyrazolium bromide]
0.5 µg/mL: MIC (S. aureus; Day 1, 37° C.) | MIC (S. aureus; Day 2, 37° C.)
10 µg/mL: MIC (P. aeruginosa; [2]) | MIC (P. aeruginosa; [3]) | MIC (E. coli; Day 1, 37° C.) | MIC (A. corymbifera; [4]) | MIC (A. corymbifera; [1])
5 µg/mL: MIC (M. canis; Day 1) | MIC (M. canis; Day 2) | MIC (E. coli; Day 2, 37° C.) | MIC (P. verrucosa; Day 1) | MIC (P. verrucosa; Day 2)
1 µg/mL: MIC (C. tropicalis; [5]) | MIC (C. tropicalis; [6])

CCCCCCCCCCCC[n+]1c(C)cc(C)n1Cc1ccc(Cl)cc1.[Br-] [Example 6-E, 2-(p-chlorobenzyl)-3,5-dimethyl-1-dodecyl-pyrazolium bromide]
50 µg/mL: MIC (A. corymbifera; [1])
1 µg/mL: MIC (C. tropicalis; [6]) | MIC (M. canis; Day 1)
0.5 µg/mL: MIC (S. aureus; Day 1, 37° C.) | MIC (S. aureus; Day 2, 37° C.)
5 µg/mL: MIC (C. tropicalis; [5]) | MIC (M. canis; Day 2) | MIC (P. aeruginosa; [2]) | MIC (P. aeruginosa; [3]) | MIC (P. verrucosa; Day 1) | MIC (P. verrucosa; Day 2)
10 µg/mL: MIC (E. coli; Day 1, 37° C.) | MIC (E. coli; Day 2, 37° C.) | MIC (A. corymbifera; [4])

C=CCn1c(C)cc(C)[n+]1CCCCCCCCCCCCCCCC.[Br-] [Example 7, 2-allyl-3,5-dimethyl-1-hexadecyl-pyrazoliumbromide]
50 µg/mL: MIC (P. aeruginosa; [2])
0.5 µg/mL: MIC (C. tropicalis; [5]) | MIC (C. tropicalis; [6]) | MIC (S. aureus; Day 1, 37° C.) | MIC (S. aureus; Day 2, 37° C.)
5 µg/mL: MIC (M. canis; Day 1) | MIC (E. coli; Day 2, 37° C.) | MIC (P. verrucosa; Day 1) | MIC (P. verrucosa; Day 2) | MIC (A. corymbifera; [4]) | MIC (A. corymbifera; [1])
10 µg/mL: MIC (M. canis; Day 2) | MIC (P. aeruginosa; [3]) | MIC (E. coli; Day 1, 37° C.)

CCCCCCCCCCCCn1c(C)cc(C)[n+]1C [Example 1, 1-dodecyl-2,3,5-trimethyl-pyrazolium methosulfate]
100 µg/mL: MIC (E. coli; Day 2, 37° C.)
50 µg/mL: MIC (P. aeruginosa; [2]) | MIC (E. coli; Day 1, 37° C.)
10 µg/mL: MIC (M. canis; Day 2) | MIC (P. aeruginosa; [3])
> 100 µg/mL: MIC (A. corymbifera; [4]) | MIC (A. corymbifera; [1])
5 µg/mL: MIC (C. tropicalis; [5]) | MIC (C. tropicalis; [6]) | MIC (S. aureus; Day 1, 37° C.) | MIC (S. aureus; Day 2, 37° C.) | MIC (M. canis; Day 1) | MIC (P. verrucosa; Day 1) | MIC (P. verrucosa; Day 2)

CCCCCCCCCCCCCCCCn1c(C)cc(C)[n+]1C [Example 2, 1-hexadecyl-2,3,5-trimethyl-pyrazolium methosulfate]
50 µg/mL: MIC (A. corymbifera; [4]) | MIC (A. corymbifera; [1])
5 µg/mL: MIC (M. canis; Day 2) | MIC (P. aeruginosa; [3]) | MIC (E. coli; Day 2, 37° C.) | MIC (P. verrucosa; Day 1)
0.5 µg/mL: MIC (C. tropicalis; [6]) | MIC (S. aureus; Day 1, 37° C.) | MIC (S. aureus; Day 2, 37° C.)
10 µg/mL: MIC (M. canis; Day 1) | MIC (P. aeruginosa; [2]) | MIC (E. coli; Day 1, 37° C.) | MIC (P. verrucosa; Day 2)
1 µg/mL: MIC (C. tropicalis; [5])
